Source: paper PMC9090415, “Discovery of small molecule inhibitors of Plasmodium falciparum apicoplast DNA polymerase” (Journal of Enzyme Inhibition and Medicinal Chemistry, 2022)

Biological target: P. falciparum apicoplast DNA polymerase (Pf-apPOL) (Plasmodium falciparum, UniProt Q8ILY1)
Assay: Fluorescence-based high-throughput DNA polymerase assay (molecular beacon), primary screen and dose-response
Format: biochemical
Experimental: The HT assay employs a molecular beacon, a stem-loop DNA template with a Cy3 dye and the Black Hole Quencher on the 3′ and 5′ ends of the DNA, respectively. Pf-apPOL concentration is based on a calculated absorptivity of ε280 = 56750 M^−1 cm^−1. Reactions were carried out at 25 °C, using Corning 3575 […] (well-volume, 20 µL). Assays testing for compound inhibition composed of reaction buffer (pH 7.9 in 50 mM potassium acetate, 20 mM Tris-acetate and 10 mM magnesium acetate), Pf-apPOL (20 nM), DNA substrate (20 nM), dNTPs (6 µM), and compound (10 µM in DMSO). The DNA and nucleotide substrates (dNTPs) were at concentrations of 20 nM and 6 µM, respectively, in the assay. Pf-apPOL was incubated in the reaction buffer with dNTPs and the compound of interest (10 µM, in the assay) at 25 °C for 10 min. The DNA substrate was then added and the reaction was allowed to proceed for 90 min at 25 °C.
Each assay plate contained 16 negative controls (no Pf-apPOL, DMSO present) and 16 positive controls (Pf-apPOL present, no DMSO). The fluorescence of each well was determined using a BioTek Synergy Neo fluorescence plate reader using excitation and emission wavelengths of 555 and 570 nm, respectively.
In the above, Min is the average of fluorescence emission of the negative controls (substrate only), Max the average fluorescence emission from the positive controls (enzyme + substrate), and Test the emission from the assays in the presence of compounds (enzyme + compound + substrates). […] […] The IC50 of each compound was determined using Equation (2): (2) IC50= Vmax/(1+ (I/IC50)^n)
In the above, n measures cooperativity, with n > 1 indicating synergistic binding of more than a single molecule of the compound.
To identify apPOL inhibitors we utilised our previously developed high-throughput DNA polymerase assay. The HT assay is based on a molecular beacon DNA template that forms a stem-loop with a Cy3 dye and the Black Hole Quencher on the 3′ and 5′ ends of the DNA, respectively. DNA polymerase activity extends an annealed primer through the stem region, displacing the fluorophore from the quencher, thereby increasing its fluorescence (Figure 1(A)). The assay accurately recapitulates the kinetic behaviour of apPOL, as measured through more conventional low-throughput gel-based assays. The Z′ factor for the assay described here was 0.9 across all plates (data not shown).
Figure 1. High-throughput screening. (A) The fluorescent-based DNA polymerase assay used to screen the compound libraries. The DNA template strand is a hairpin loop with a primer annealed to the loop. The 3’ end of the primer is 11 bases away from the 6 bp duplex. Strand displacement activity of the DNA polymerase separates the Cy3 dye from the Black hole quencher leading to an increase in fluorescent signal. (B) The high-throughput assay workflow. The DNA polymerase is incubated with […] compound for 10 min prior to addition of the hairpin substrate. The reaction is quenched at 3 different time points and the fluorescent signal is measured and % inhibition is determined using the provided equation.

[1] = primary screen value of the 186 hits; unit not given; 90 min, 10 µM

P. falciparum apicoplast DNA polymerase (Pf-apPOL), sequence (Q8ILY1 entry or part of it): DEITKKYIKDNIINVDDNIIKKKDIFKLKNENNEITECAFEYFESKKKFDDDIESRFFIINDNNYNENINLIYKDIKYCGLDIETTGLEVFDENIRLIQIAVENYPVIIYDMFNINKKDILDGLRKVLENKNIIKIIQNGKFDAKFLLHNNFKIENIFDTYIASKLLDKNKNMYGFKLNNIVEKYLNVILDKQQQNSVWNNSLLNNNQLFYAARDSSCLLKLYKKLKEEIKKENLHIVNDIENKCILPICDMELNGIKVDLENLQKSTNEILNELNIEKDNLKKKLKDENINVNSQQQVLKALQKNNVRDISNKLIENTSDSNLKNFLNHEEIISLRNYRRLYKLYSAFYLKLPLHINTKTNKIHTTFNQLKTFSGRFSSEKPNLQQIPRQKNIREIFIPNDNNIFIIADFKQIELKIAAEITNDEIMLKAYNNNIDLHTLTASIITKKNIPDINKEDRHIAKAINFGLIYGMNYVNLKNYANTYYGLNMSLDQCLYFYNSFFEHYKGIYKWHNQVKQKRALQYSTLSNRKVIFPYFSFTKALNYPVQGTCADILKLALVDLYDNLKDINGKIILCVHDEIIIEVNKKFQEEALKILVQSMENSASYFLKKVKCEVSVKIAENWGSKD

`COc1ccc(NC(=O)Cn2nc3c(cc2=O)CCC3)cc1Cl` [Molecule 4, COc1ccc(cc1Cl)NC(=O)Cn1nc2CCCc2cc1=O] was tested, and the “% inhibition Apo pol 10'” value (DRC-1; concentration 2.5; 10') was -1.67%, the “% inhibition Apol 90'” value (DRC-1; concentration 2.5; 90') was -5% and the “% inhibition apPOL 180'” value (DRC-1; concentration 2.5; 180') was -9%. For the same molecule, the “% inhibition Apo pol 10'” value (DRC-1; concentration 5; 10') was 44%, the “% inhibition Apol 90'” value (DRC-1; concentration 5; 90') was 29% and the “% inhibition apPOL 180'” value (DRC-1; concentration 5; 180') was 17%. For the same molecule, the “% inhibition Apo pol 10'” value (DRC-1; concentration 10; 10') was 88%, the “% inhibition Apol 90'” value (DRC-1; concentration 10; 90') was 78% and the “% inhibition apPOL 180'” value (DRC-1; concentration 10; 180') was 66%. The “% inhibition Apo pol 10'” value (DRC-1; concentration 20; 10') was 94%, the “% inhibition Apol 90'” value (DRC-1; concentration 20; 90') was 90% and the “% inhibition apPOL 180'” value (DRC-1; concentration 20; 180') was 86%. For the same molecule, the “% inhibition Apo pol 10'” value (DRC-1; concentration 40; 10') was 93%, the “% inhibition Apol 90'” value (DRC-1; concentration 40; 90') was 92% and the “% inhibition apPOL 180'” value (DRC-1; concentration 40; 180') was 91%. The “% inhibition Apo pol 10'” value (DRC-1; concentration 80 (unit not given); 10') was 89%, the “% inhibition Apol 90'” value (DRC-1; concentration 80; 90') was 90% and the “% inhibition apPOL 180'” value (DRC-1; concentration 80; 180') was 91%. The “% inhibition Apol 40'” value (DRC-2; 40'; concentration 10) was 69%, the “% inhibition Apol 40'” value (DRC-2; 40'; concentration 20) was 69% and the “% inhibition ApPOL 90'” value (DRC-2; 90'; concentration 10) was 71%. For the same molecule, the “% inhibition ApPOL 90'” value (DRC-2; 90'; concentration 80) was 71%, the “% inhibition apPOL 180'” value (DRC-2; 180'; concentration 5) was 44% and the “% inhibition apPOL 180'” value (DRC-2; 180'; concentration 10) was 69%. The “% inhibition apPOL 180'” value (DRC-2; 180'; concentration 40) was 78%, the “% inhibition Apo pol 5'” value (DRC-2; concentration 2.5; 5') was 19% and the “% inhibition Apol 40'” value (DRC-2; concentration 2.5; 40') was 18%. For the same molecule, the “% inhibition ApPOL 90'” value (DRC-2; concentration 2.5; 90') was 16%, the “% inhibition apPOL 180'” value (DRC-2; concentration 2.5; 180') was 8% and the “% inhibition Apo pol 5'” value (DRC-2; concentration 5; 5') was 46%. The “% inhibition Apol 40'” value (DRC-2; concentration 5; 40') was 55%, the “% inhibition ApPOL 90'” value (DRC-2; concentration 5; 90') was 54% and the “% inhibition apPOL 180'” value (DRC-2; concentration 5; 180') was 44%. The “% inhibition Apo pol 5'” value (DRC-2; concentration 10; 5') was 52%, the “% inhibition Apol 40'” value (DRC-2; concentration 10; 40') was 69% and the “% inhibition ApPOL 90'” value (DRC-2; concentration 10; 90') was 71%. For the same molecule, the “% inhibition apPOL 180'” value (DRC-2; concentration 10; 180') was 69%, the “% inhibition Apo pol 5'” value (DRC-2; concentration 20; 5') was 49% and the “% inhibition Apol 40'” value (DRC-2; concentration 20; 40') was 69%. The “% inhibition ApPOL 90'” value (DRC-2; concentration 20; 90') was 73%, the “% inhibition apPOL 180'” value (DRC-2; concentration 20; 180') was 75% and the “% inhibition Apo pol 5'” value (DRC-2; concentration 40; 5') was 50%. The “% inhibition Apol 40'” value (DRC-2; concentration 40; 40') was 70%, the “% inhibition ApPOL 90'” value (DRC-2; concentration 40; 90') was 74% and the “% inhibition apPOL 180'” value (DRC-2; concentration 40; 180') was 78%. The “% inhibition Apo pol 5'” value (DRC-2; concentration 80; 5') was 43%, the “% inhibition Apol 40'” value (DRC-2; concentration 80; 40') was 65% and the “% inhibition ApPOL 90'” value (DRC-2; concentration 80; 90') was 71%. For the same molecule, the “% inhibition apPOL 180'” value (DRC-2; concentration 80; 180') was 76%, the “% inhibition Apo pol 10'” value (first dose-response set; 10'; concentration 5) was 44% and the “% inhibition Apol 90'” value (first dose-response set; 90'; concentration 10) was 78%. The “% inhibition Apol 90'” value (first dose-response set; 90'; concentration 20) was 90%, the “% inhibition Apol 90'” value (first dose-response set; 90'; concentration 80) was 90% and the “% inhibition apPOL 180'” value (first dose-response set; 180'; concentration 40) was 91%. The “% inhibition apPOL 180'” value (first dose-response set; 180'; concentration 80) was 91%, the “DNA Pol” value [1] was 45 and the “DNA Pol” value (primary screen value; head prints only 'DNA Pol'; 90 min, 10 µM) was 45.

For `CC(=O)OCC1=C(C(=O)O)N2C(=O)[C@@H](NC(=O)Cc3cccs3)[C@H]2SC1` [Molecule 73], the IC50 (supplemental file 2, sheet IC50 nontoxic compounds; Pf-apPOL) was 16.6 µM.

For `O=C1NCCCn2cc(S(=O)(=O)Nc3ccccc3)cc21` [KU0214835], the “% inhibition Apo pol 10'” value (DRC-1; 10'; concentration 2.5) was 3.062%, the “% inhibition Apo pol 10'” value (DRC-1; 10'; concentration 5) was 6.352% and the “% inhibition Apo pol 10'” value (DRC-1; 10'; concentration 10) was 23.7327%. For the same molecule, the “% inhibition Apo pol 10'” value (DRC-1; 10'; concentration 20) was 40.9778%, the “% inhibition Apo pol 10'” value (DRC-1; 10'; concentration 40) was 76.8886% and the “% inhibition Apo pol 10'” value (DRC-1; 10'; concentration 80) was 90.7287%. For the same molecule, the “% inhibition Apol 90'” value (DRC-1; 90'; concentration 2.5) was -1.959%, the “% inhibition Apol 90'” value (DRC-1; 90'; concentration 5) was -0.5686% and the “% inhibition Apol 90'” value (DRC-1; 90'; concentration 10) was 11.8703%. The “% inhibition Apol 90'” value (DRC-1; 90'; concentration 20) was 23.2222%, the “% inhibition Apol 90'” value (DRC-1; 90'; concentration 40) was 60.7318% and the “% inhibition Apol 90'” value (DRC-1; 90'; concentration 80) was 88.5247%. For the same molecule, the “% inhibition apPOL 180'” value (DRC-1; 180'; concentration 2.5) was -6.967%, the “% inhibition apPOL 180'” value (DRC-1; 180'; concentration 5) was -5.597% and the “% inhibition apPOL 180'” value (DRC-1; 180'; concentration 10) was 2.257%. The “% inhibition apPOL 180'” value (DRC-1; 180'; concentration 20) was 8.277%, the “% inhibition apPOL 180'” value (DRC-1; 180'; concentration 40) was 41.6614% and the “% inhibition apPOL 180'” value (DRC-1; 180'; concentration 80) was 83.4683%. The “% inhibition Apo pol 5'” value (DRC-2; 5'; concentration 2.5) was 5.45%, the “% inhibition Apo pol 5'” value (DRC-2; 5'; concentration 5) was 8% and the “% inhibition Apo pol 5'” value (DRC-2; 5'; concentration 10) was 25%. The “% inhibition Apo pol 5'” value (DRC-2; 5'; concentration 20) was 44%, the “% inhibition Apo pol 5'” value (DRC-2; 5'; concentration 40) was 53% and the “% inhibition Apo pol 5'” value (DRC-2; 5'; concentration 80) was 50%. For the same molecule, the “% inhibition Apol 40'” value (DRC-2; 40'; concentration 2.5) was 7%, the “% inhibition Apol 40'” value (DRC-2; 40'; concentration 5) was 8% and the “% inhibition Apol 40'” value (DRC-2; 40'; concentration 10) was 24%. The “% inhibition Apol 40'” value (DRC-2; 40'; concentration 20) was 48%, the “% inhibition Apol 40'” value (DRC-2; 40'; concentration 40) was 66% and the “% inhibition Apol 40'” value (DRC-2; 40'; concentration 80) was 70%. For the same molecule, the “% inhibition ApPOL 90'” value (DRC-2; 90'; concentration 2.5) was 5.66%, the “% inhibition ApPOL 90'” value (DRC-2; 90'; concentration 5) was 7% and the “% inhibition ApPOL 90'” value (DRC-2; 90'; concentration 10) was 21%. The “% inhibition ApPOL 90'” value (DRC-2; 90'; concentration 20) was 44%, the “% inhibition ApPOL 90'” value (DRC-2; 90'; concentration 40) was 66% and the “% inhibition ApPOL 90'” value (DRC-2; 90'; concentration 80) was 74%. For the same molecule, the “% inhibition apPOL 180'” value (DRC-2; 180'; concentration 2.5) was 2%, the “% inhibition apPOL 180'” value (DRC-2; 180'; concentration 5) was 3.52% and the “% inhibition apPOL 180'” value (DRC-2; 180'; concentration 10) was 14%. For the same molecule, the “% inhibition apPOL 180'” value (DRC-2; 180'; concentration 20) was 31%, the “% inhibition apPOL 180'” value (DRC-2; 180'; concentration 40) was 59% and the “% inhibition apPOL 180'” value (DRC-2; 180'; concentration 80) was 76%. The “% inhibition Apol 40'” value (conc. 2.5; 40'; DRC-2) was 7%, the “% inhibition Apo pol 5'” value (conc. 5; 5'; DRC-2) was 8% and the “% inhibition Apol 40'” value (conc. 5; 40'; DRC-2) was 8%. The “% inhibition ApPOL 90'” value (conc. 5; 90'; DRC-2) was 7%, the “% inhibition Apo pol 5'” value (conc. 20; 5'; DRC-2) was 44% and the “% inhibition ApPOL 90'” value (conc. 20; 90'; DRC-2) was 44%. The “% inhibition Apol 40'” value (conc. 40; 40'; DRC-2) was 66%, the “% inhibition ApPOL 90'” value (conc. 40; 90'; DRC-2) was 66% and the “DNA Pol” value (primary screen value by plate and well; 90 min, 10 µM) was 21. For the same molecule, the “DNA Pol” value [1] was 21.
